# Reference: patent US6476030B1, “Pyrazolo-triazine derivatives as ligands for GABA receptors” (Merck Sharp & Dohme Ltd., priority 1998, dated 2002)
row,SMILES,melting point [°C]
1,"CCC(C)(C)c1c(OCc2ncnn2C)nn2c(-c3c(F)ccc(F)c3F)nncc12 [Example 43, 3-(1,1-Dimethylpropyl)-2-(2-methyl-2H-[1,2,4]triazol-3-ylmethoxy)-7-(2,3,6-trifluorophenyl)pyrazolo[1,5-d][1,2,4]triazine]",122 to 125
2,"Cn1ncnc1COc1nn2c(-c3cccnc3)nncc2c1-c1ccccc1F [Example 45, 3-(2-Fluorophenyl)-2-(2-methyl-2H-[1,2,4]triazol-3-ylmethoxy)-7-(pyridin-3-yl)pyrazolo[1,5-d][1,2,4]triazine]",164 to 166
3,"CCn1ncnc1COc1nn2c(-c3ccccc3F)nncc2c1-c1ccncc1 [Example 46, 2-(2-Ethyl-2H-[1,2,4]triazol-3-ylmethoxy)-7-(2-fluorophenyl)-3-(pyridin-4-yl)pyrazolo[1,5-d][1,2,4]triazine]",214 to 217
4,"CCn1ncnc1COc1nn2c(-c3ccc(F)cc3)nncc2c1-c1ccccc1F [Example 47, 2-(2-Ethyl-2H-[1,2,4]triazol-3-ylmethoxy)-3-(2-fluorophenyl)-7-(4-fluorophenyl)pyrazolo[1,5-d][1,2,4]triazine]",179
5,"CCCn1ncnc1COc1nn2c(-c3ccc(F)cc3)nncc2c1-c1ccccc1F [Example 48, 3-(2-Fluorophenyl)-7-(4-fluorophenyl)-2-(2-propyl-2H-[1,2,4]triazol-3-ylmethoxy)pyrazolo[1,5-d][1,2,4]triazine]",148
6,"Cn1ncnc1COc1nn2c(-c3c(F)cccc3F)nncc2c1-c1ccccc1F [Example 49, 7-(2,6-Difluorophenyl)-3-(2-fluorophenyl)-2-(2-methyl-2H-[1,2,4]triazol-3-ylmethoxy)pyrazolo[1,5-d][1,2,4]triazine]",163
7,"Cn1ncnc1COc1nn2c(-c3cccc(F)c3)nncc2c1-c1ccccc1F [Example 51, 3-(2-Fluorophenyl)-7-(3-fluorophenyl)-2-(2-methyl-2H-[1,2,4]triazol-3-ylmethoxy)pyrazolo[1,5-d][1,2,4]triazine]",169 to 170
8,"Cn1ncnc1COc1nn2c(-c3ccc(F)cc3F)nncc2c1-c1ccccc1F [Example 52, 7-(2,4-Difluorophenyl)-3-(2-fluorophenyl)-2-(2-methyl-2H-[1,2,4]triazol-3-ylmethoxy)pyrazolo[1,5-d][1,2,4]triazine]",164 to 166
9,"Cn1ncnc1COc1nn2c(-c3ccccc3F)nncc2c1-c1ccccn1 [Example 53, 7-(2-Fluorophenyl)-2-(2-methyl-2H-[1,2,4]triazol-3-ylmethoxy)-3-(pyridin-2-yl)pyrazolo[1,5-d][1,2,4]triazine]",186 to 187
10,"Cn1ncnc1COc1nn2c(-c3ccccc3F)nncc2c1-c1cccs1 [Example 54, 7-(2-Fluorophenyl)-2-(2-methyl-2H-[1,2,4]triazol-3-ylmethoxy)-3-(thien-2-yl)pyrazolo[1,5-d][1,2,4]triazine]",196 to 197
11,"Cn1ncnc1COc1nn2c(-c3ccccc3F)nncc2c1-c1ccco1 [Example 55, 7-(2-Fluorophenyl)-3-(furan-2-yl)-2-(2-methyl-2H-[1,2,4]triazol-3-ylmethoxy)pyrazolo[1,5-d][1,2,4]triazine]",188 to 190
12,"Cn1ncnc1COc1nn2c(-c3ccc(F)cc3F)nncc2c1C(C)(C)C [Example 56, 7-(2,4-Difluorophenyl)-3-(1,1-dimethylethyl)-2-(2-methyl-2H-[1,2,4]triazol-3-ylmethoxy)pyrazolo[1,5-d][1,2,4]triazine]",118
13,"CCn1ncnc1COc1nn2c(-c3ccc(F)cc3F)nncc2c1C(C)(C)C [Example 57, 7-(2,4-Difluorophenyl)-3-(1,1-dimethylethyl)-2-(2-ethyl-2H-[1,2,4]triazol-3-ylmethoxy)pyrazolo[1,5-d][1,2,4]triazine]",145
14,"CCn1ncnc1COc1nn2c(-c3ccccc3F)nncc2c1-c1ccccc1F [Example 58, 2-(2-Ethyl-2H-[1,2,4]triazol-3-ylmethoxy)-3,7-bis(2-fluorophenyl)-pyrazolo[1,5-d][1,2,4]triazine]",164
15,"Cn1cnc(COc2nn3c(-c4ccccc4F)nncc3c2-c2ccccc2F)n1 [Example 59, 3,7-bis(2-Fluorophenyl)-2-(1-methyl-1H-[1,2,4]triazol-3-ylmethoxy)pyrazolo[1,5-d][1,2,4]triazine]",184
16,"Cn1nncc1COc1nn2c(-c3ccccc3F)nncc2c1-c1ccccc1F [Example 60, 3,7-bis(2-Fluorophenyl)-2-(3-methyl-3H-[1,2,3]triazol-4-ylmethoxy)pyrazolo[1,5-d][1,2,4]triazine]",188
17,"Cn1cc(COc2nn3c(-c4ccccc4F)nncc3c2-c2ccccc2F)nn1 [Example 61, 3,7-bis(2-Fluorophenyl)-2-(1-methyl-1H-[1,2,3]triazol-4-ylmethoxy)pyrazolo[1,5-d][1,2,4]triazine]",175
18,"Cc1cccc(COc2nn3c(-c4ccccc4F)nncc3c2-c2ccccc2F)n1 [Example 62, 3,7-bis(2-Fluorophenyl)-2-(6-methylpyridin-2-ylmethoxy)pyrazolo[1,5-d][1,2,4]triazine]",197
19,"Fc1ccccc1-c1c(OCc2cccnc2)nn2c(-c3ccccc3F)nncc12 [Example 63, 3,7-bis(2-Fluorophenyl)-2-(pyridin-3-ylmethoxy)pyrazolo[1,5-d][1,2,4]triazine]",146
20,"Fc1ccccc1-c1c(OCc2ccncc2)nn2c(-c3ccccc3F)nncc12 [Example 64, 3,7-bis(2-Fluorophenyl)-2-(pyridin-4-ylmethoxy)pyrazolo[1,5-d][1,2,4]triazine]",143
21,"Fc1ccccc1-c1c(OCc2ncccc2OC2CCC2)nn2c(-c3ccccc3F)nncc12 [Example 65, 2-(3-Cyclobutyloxypyridin-2-ylmethoxy)-3,7-bis(2-fluorophenyl)-pyrazolo[1,5-d][1,2,4]triazine]",66
22,"COc1cccnc1COc1nn2c(-c3ccccc3F)nncc2c1-c1ccccc1F [Example 67, 3,7-bis(2-Fluorophenyl)-2-(3-methoxypyridin-2-ylmethoxy)pyrazolo[1,5-d][1,2,4]triazine]",143
23,"CCOc1cccnc1COc1nn2c(-c3ccccc3F)nncc2c1-c1ccccc1F [Example 68, 2-(3-Ethoxypyridin-2-ylmethoxy)-3,7-bis(2-fluorophenyl)pyrazolo[1,5-d][1,2,4]triazine]",77
24,"Cc1cccnc1COc1nn2c(-c3ccccc3F)nncc2c1-c1ccccc1F [Example 69, 3,7-bis(2-Fluorophenyl)-2-(3-methylpyridin-2-ylmethoxy)pyrazolo[1,5-d][1,2,4]triazine]",69
25,"Cc1csc(COc2nn3c(-c4ccccc4F)nncc3c2-c2ccccc2F)n1 [Example 71, 3,7-bis(2-Fluorophenyl)-2-(4-methylthiazol-2-ylmethoxy)pyrazolo[1,5-d][1,2,4]triazine]",176
26,"Cc1cnc(COc2nn3c(-c4ccccc4F)nncc3c2-c2ccccc2F)s1 [Example 72, 3,7-bis(2-Fluorophenyl)-2-(5-methylthiazol-2-ylmethoxy)pyrazolo[1,5-d][1,2,4]triazine]",154
